Results from patent US7365194B2 (Pondicherry University and Department of Biotechnology, priority 2004, dated 2008).

Legend:
phytopathogens = conditions: in vitro, complete ionization to an inactive carboxylate ion; cited from earlier work
cell lines = assay: MTT cytotoxicity assay; assay type: cell-based; design: dose or concentration left out as unconfirmed; conditions: average of three replicates
Experimental: (§1) At the end of incubation, 20 μL MTT (5 mg/mL) was added and cells were incubated at 37° C. After 4 hr, MTT was removed and 100 μL of DMSO was added. Cell viability was determined by measuring the absorbance at a test wavelength of 570 nm.
as §1, with “Cytotoxycity of dimer of phenazine-1-carboxylic acid natural product against cell lines was determined by MTT assay. […] At” for “At”

Pseudomonas aeruginosa = assay: Antimicrobial MIC, agar/disc diffusion; assay type: cell-based; conditions: 27° C. to about 37° C. for 48 hr
Experimental: (§2) Assay plates were incubated at 28° C. for 3 days to observe the zone of growth-inhibition of test microorganisms.
(§3) Test compound was dissolved in chloroform at various concentrations, separately loaded on to sterile filter paper discs (Whatman No.1, 6 mm diameter) and placed on the surface of agar plates pre-inoculated with the test pathogens. Assay plates were incubated at 27° C. for 72 hr for fungi and 27° C. to about 37° C. for 48 hr for bacteria.

C. falcatum = assay: Antimicrobial MIC, agar/disc diffusion; assay type: cell-based; conditions: 27° C. for 72 hr
Experimental: as §2, §3

Macrophomina phaeseolina = assay: Antimicrobial MIC, agar/disc diffusion; assay type: cell-based; conditions: 27° C. for 72 hr
Experimental: as §2, §3

Botrytis cinera = assay: Antimicrobial MIC, agar/disc diffusion; assay type: cell-based; conditions: 27° C. for 72 hr
Experimental: as §2, §3

Sarocladium oryzae = assay: Antimicrobial MIC, agar/disc diffusion; assay type: cell-based; conditions: 27° C. for 72 hr
Experimental: as §2, §3

Staphylococcus aureus = assay: Antimicrobial MIC, agar/disc diffusion; assay type: cell-based; conditions: 27° C. to about 37° C. for 48 hr
Experimental: as §2, §3

C. capsici = assay: Antimicrobial MIC, agar/disc diffusion; assay type: cell-based; conditions: 27° C. for 72 hr
Experimental: as §2, §3

[1] = test system: Colletotrichum gleosporoides; assay: Antimicrobial MIC, agar/disc diffusion; assay type: cell-based; conditions: 27° C. for 72 hr
Experimental: as §2, §3

[2] = test system: Fusarium oxysporum sub sp. cubense; assay: Antimicrobial MIC, agar/disc diffusion; assay type: cell-based; conditions: 27° C. for 72 hr
Experimental: as §2, §3

Escherichia coli = assay: Antimicrobial MIC, agar/disc diffusion; assay type: cell-based; conditions: 27° C. to about 37° C. for 48 hr
Experimental: as §2, §3

Salmonella typhimurium = assay: Antimicrobial MIC, agar/disc diffusion; assay type: cell-based; conditions: 27° C. to about 37° C. for 48 hr
Experimental: as §2, §3

Rhizoctonia solani = assay: Antimicrobial MIC, agar/disc diffusion; assay type: cell-based; conditions: 27° C. for 72 hr
Experimental: as §2, §3

[3] = test system: plant, animal and human pathogens; assay: Antimicrobial activity in acidic and alkaline pH; assay type: cell-based; conditions: in vitro
Experimental: as §2, §3

Row | Compound | effectiveness in alkaline pH (phytopathogens) | OD @ 570 nm (cell lines; concentration 1, 24 hr at 37° C.) | OD @ 570 nm (cell lines; concentration 10, 24 hr at 37° C.) | OD @ 570 nm (cell lines; concentration 25, 24 hr at 37° C.) | OD @ 570 nm (cell lines; concentration 50, 24 hr at 37° C.) | MIC (Pseudomonas aeruginosa) [µg/mL] | MIC (C. falcatum) [µg/mL] | MIC (Macrophomina phaeseolina) [µg/mL] | MIC (Botrytis cinera) [µg/mL] | MIC (Sarocladium oryzae) [µg/mL] | MIC (Staphylococcus aureus) [µg/mL] | MIC (C. capsici) [µg/mL] | MIC [1] [µg/mL] | MIC [2] [µg/mL] | MIC (Escherichia coli) [µg/mL] | MIC (Salmonella typhimurium) [µg/mL] | MIC (Rhizoctonia solani) [µg/mL] | antimicrobial activity [3]
1 | O=C(O)c1cccc2nc3ccccc3nc12 [PCA, phenazine 1-carboxylic acid] | ineffective |  |  |  |  |  |  |  |  |  |  |  |  |  |  |  |  | 
2 | dimer of phenazine-1-carboxylic acid |  | 0.531 | 0.472 | 0.366 | 0.285 | >90 | 5 | 12 | 14 | 3 | >120 | 7 | 7 | 7 | >100 | >120 | 2 | showed antimicrobial activity
